From patent publication US8497266B2, “3-(3-pyrimidin-2-ylbenzyl)-1,2,4-triazolo[4,3-b]pyridazine derivatives as MET kinase inhibitors” (Merck Patent GmbH, priority 2008, dated 2013)

biological target: Met kinase (Homo sapiens, UniProt P08581); experiment: Met kinase inhibition (cell); type: cell-based
Sequence (P08581 25-1390): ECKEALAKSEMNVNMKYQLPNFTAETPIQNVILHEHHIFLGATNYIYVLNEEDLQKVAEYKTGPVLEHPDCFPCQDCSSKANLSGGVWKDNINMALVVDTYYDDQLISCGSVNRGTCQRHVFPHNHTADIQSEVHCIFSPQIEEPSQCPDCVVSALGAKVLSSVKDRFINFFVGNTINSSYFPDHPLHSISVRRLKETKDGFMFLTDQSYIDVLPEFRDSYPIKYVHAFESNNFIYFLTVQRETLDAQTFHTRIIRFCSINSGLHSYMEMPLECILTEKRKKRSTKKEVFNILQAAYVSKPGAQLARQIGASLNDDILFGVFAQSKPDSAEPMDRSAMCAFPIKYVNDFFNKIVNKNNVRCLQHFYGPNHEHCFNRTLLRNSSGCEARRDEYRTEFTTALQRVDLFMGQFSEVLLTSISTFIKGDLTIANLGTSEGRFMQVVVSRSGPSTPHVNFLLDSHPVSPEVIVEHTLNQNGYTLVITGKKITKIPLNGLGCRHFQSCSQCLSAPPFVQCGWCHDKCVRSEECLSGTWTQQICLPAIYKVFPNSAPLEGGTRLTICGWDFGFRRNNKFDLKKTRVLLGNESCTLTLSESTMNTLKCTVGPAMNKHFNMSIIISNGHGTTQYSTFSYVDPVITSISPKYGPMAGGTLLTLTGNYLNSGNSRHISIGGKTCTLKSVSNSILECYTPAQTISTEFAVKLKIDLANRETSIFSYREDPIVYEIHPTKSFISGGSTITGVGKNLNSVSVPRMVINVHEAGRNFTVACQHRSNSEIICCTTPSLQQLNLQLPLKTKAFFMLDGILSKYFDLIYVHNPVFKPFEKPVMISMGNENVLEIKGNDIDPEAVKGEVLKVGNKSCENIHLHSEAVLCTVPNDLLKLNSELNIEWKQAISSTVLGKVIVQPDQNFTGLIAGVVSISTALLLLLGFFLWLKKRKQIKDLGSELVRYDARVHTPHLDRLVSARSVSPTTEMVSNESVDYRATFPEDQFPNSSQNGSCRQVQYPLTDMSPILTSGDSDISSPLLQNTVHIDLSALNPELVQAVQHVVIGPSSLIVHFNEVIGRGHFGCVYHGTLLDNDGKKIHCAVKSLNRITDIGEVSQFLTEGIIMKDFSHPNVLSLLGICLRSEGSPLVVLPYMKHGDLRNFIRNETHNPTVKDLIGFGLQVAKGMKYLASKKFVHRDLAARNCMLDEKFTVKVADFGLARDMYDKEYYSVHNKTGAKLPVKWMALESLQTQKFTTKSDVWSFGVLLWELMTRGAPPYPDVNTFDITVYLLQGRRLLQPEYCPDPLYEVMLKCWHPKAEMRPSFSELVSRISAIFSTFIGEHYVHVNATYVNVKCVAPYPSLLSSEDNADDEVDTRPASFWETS

Compared with `Cn1cc(-c2ccc3nnc(Cc4cccc(-c5ncc(O)cn5)c4)n3n2)cn1` [Compound A30, 2-{3-[6-(1-methyl-1H-pyrazol-4-yl)-1,2,4-triazolo[4,3-b]pyridazin-3-yl-methyl]phenyl}pyrimidin-5-ol], `COc1cnc(-c2cccc(Cc3nnc4ccc(-c5cnn(C)c5)nn34)c2)nc1` [Compound A35, 3-[3-(5-methoxypyrimidin-2-yl)benzyl]-6-(1-methyl-1H-pyrazol-4-yl)-1,2,4-triazolo[4,3-b]pyridazine] is lower in IC50: 100 to 10000 nM for the first, 1 to 100 nM for the second.

First: COCCOc1cnc(-c2cccc(Cc3nnc4ccc(-c5cnn(C)c5)nn34)c2)nc1 [Compound A33, 3-{3-[5-(2-methoxyethoxy)pyrimidin-2-yl]benzyl}-6-(1-methyl-1H-pyrazol-4-yl)-1,2,4-triazolo[4,3-b]pyridazine]
Second: COCCCOc1cnc(-c2cccc(Cc3nnc4ccc(-c5cnn(C)c5)nn34)c2)nc1 [Compound A36, 3-{3-[5-(3-methoxypropoxy)pyrimidin-2-yl]benzyl}-6-(1-methyl-1H-pyrazol-4-yl)-1,2,4-triazolo[4,3-b]pyridazine]
The IC50 of the first is higher: 100 to 10000 nM for the first, 1 to 100 nM for the second. The second is the more potent here.

`CN1CCN(CCOc2cnc(-c3cccc(Cc4nnc5ccc(-c6cnn(C)c6)nn45)c3)nc2)CC1` [Compound A37, 3-(3-{5-[2-(4-methylpiperazin-1-yl)ethoxy]pyrimidin-2-yl}benzyl)-6-(1-methyl-1H-pyrazol-4-yl)-1,2,4-triazolo[4,3-b]pyridazine] and `Cn1cc(-c2ccc3nnc(Cc4cccc(-c5ncc(OCCO)cn5)c4)n3n2)cn1` [Compound A34, 2-(2-{3-[6-(1-methyl-1H-pyrazol-4-yl)-1,2,4-triazolo[4,3-b]pyridazin-3-ylmethyl]-phenyl}pyrimidin-5-yloxy)ethanol] fall in the same range of IC50: 1 to 100 nM for the first, 1 to 100 nM for the second.

`Cn1cc(-c2ccc3nnc(Cc4cccc(-c5ncc(-c6cnn(CCN7CCCC7)c6)cn5)c4)n3n2)cn1` [Compound A2, 6-(1-methyl-1H-pyrazol-4-yl)-3-(3-{5-[1-(2-pyrrolidin-1-yl-ethyl)-1H-pyrazol-4-yl]pyrimidin-2-yl}benzyl)-1,2,4-triazolo[4,3-b]pyridazine] and `Cc1cnc(-c2cccc(Cc3nnc4ccc(-c5cnn(CCO)c5)nn34)c2)nc1` [Compound A44, 2-(4-{3-[3-(5-methyl-pyrimidin-2-yl)benzyl]-1,2,4-triazolo[4,3-b]pyridazin-6-yl}pyrazol-1-yl)ethanol] fall in the same range of IC50: 1 to 100 nM for the first, 1 to 100 nM for the second.

`Cc1ccc2nnc(C(F)(F)c3cccc(-c4ncc(OCCN5CCOCC5)cn4)c3)n2n1` [Compound A28, 3-(difluoro-{3-[5-(2-morpholin-4-ylethoxy)pyrimidin-2-yl]-phenyl}methyl)-6-methyl-1,2,4-triazolo[4,3-b]pyridazine] and `Cn1cc(-c2ccc3nnc(C(F)(F)c4cccc(-c5ncc(OCCO)cn5)c4)n3n2)cn1` [Compound A32, 2-[2-(3-{difluoro-[6-(1-methyl-1H-pyrazol-4-yl)-1,2,4-triazolo[4,3-b]pyridazin-3-yl]methyl}phenyl)pyrimidin-5-yloxy]ethanol] fall in the same range of IC50: 1 to 100 nM for the first, 1 to 100 nM for the second.

`CN1CCC(COc2cnc(-c3cccc(C(F)(F)c4nnc5ccc(-c6cnn(C)c6)nn45)c3)nc2)CC1` [Compound A42, 3-(difluoro-{3-[5-(1-methylpiperidin-4-ylmethoxy)pyrimidin-2-yl]-phenyl}methyl)-6-(1-methyl-1H-pyrazol-4-yl)-1,2,4-triazolo[4,3-b]pyridazine] and `COCCOc1cnc(-c2cccc(C(F)(F)c3nnc4ccc(-c5cnn(C)c5)nn34)c2)nc1` [Compound A31, 3-(difluoro-{3-[5-(2-methoxyethoxy)pyrimidin-2-yl]phenyl}methyl)-6-(1-methyl-1H-pyrazol-4-yl)-1,2,4-triazolo[4,3-b]pyridazine] fall in the same range of IC50: 1 to 100 nM for the first, 1 to 100 nM for the second.
